Measurements taken from PubChem BioAssay (NCI).
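Test compounds were applied to cells in 96-well plates for 48 hours at 5 doses. Here, GI50 denotes the concentration required for 50% inhibition of growth. At the TGI there is no net growth.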

Experiments:
Experiment in all cases: growth of human tumour cells (NCI), 48 h
U251 CNS = tested on: U251 CNS
HOP-62 NSCLC = tested on: HOP-62 NSCLC
COLO 205 colon = tested on: COLO 205 colon
UACC-62 melanoma = tested on: UACC-62 melanoma
SR leukemia = tested on: SR leukemia
ACHN renal = tested on: ACHN renal
OVCAR-4 ovarian = tested on: OVCAR-4 ovarian
TK-10 renal = tested on: TK-10 renal
CAKI-1 renal = tested on: CAKI-1 renal
NCI-H23 lung = tested on: NCI-H23 lung
MOLT-4 leukemia = tested on: MOLT-4 leukemia
HCC-2998 colon = tested on: HCC-2998 colon
NCI-H460 lung = tested on: NCI-H460 lung
SK-OV-3 ovarian = tested on: SK-OV-3 ovarian
SN12C renal = tested on: SN12C renal
HCT-116 colon = tested on: HCT-116 colon
NCI/ADR-RES ovarian = tested on: NCI/ADR-RES ovarian
SF-295 CNS = tested on: SF-295 CNS
A549 NSCLC = tested on: A549 NSCLC
PC-3 prostate = tested on: PC-3 prostate
DU-145 prostate = tested on: DU-145 prostate
SF-268 CNS = tested on: SF-268 CNS
OVCAR-5 ovarian = tested on: OVCAR-5 ovarian
HT29 colon = tested on: HT29 colon
SF-539 CNS = tested on: SF-539 CNS
OVCAR-3 ovarian = tested on: OVCAR-3 ovarian
SK-MEL-5 melanoma = tested on: SK-MEL-5 melanoma
UO-31 renal = tested on: UO-31 renal
786-0 renal = tested on: 786-0 renal
MCF7 breast = tested on: MCF7 breast
NCI-H522 lung = tested on: NCI-H522 lung
SW-620 colon = tested on: SW-620 colon
MDA-MB-435 = tested on: MDA-MB-435
UACC-257 melanoma = tested on: UACC-257 melanoma
MALME-3M melanoma = tested on: MALME-3M melanoma
RXF 393 renal = tested on: RXF 393 renal
LOX IMVI melanoma = tested on: LOX IMVI melanoma
KM12 colon = tested on: KM12 colon
IGROV1 ovarian = tested on: IGROV1 ovarian
HL-60(TB) leukemia = tested on: HL-60(TB) leukemia
MDA-MB-231 breast = tested on: MDA-MB-231 breast
A498 renal = tested on: A498 renal
CCRF-CEM leukemia = tested on: CCRF-CEM leukemia
M14 melanoma = tested on: M14 melanoma
EKVX NSCLC = tested on: EKVX NSCLC
T-47D breast = tested on: T-47D breast
RPMI-8226 leukemia = tested on: RPMI-8226 leukemia
HCT-15 colon = tested on: HCT-15 colon
SNB-19 CNS = tested on: SNB-19 CNS
HS 578T breast = tested on: HS 578T breast
K-562 leukemia = tested on: K-562 leukemia
SK-MEL-2 melanoma = tested on: SK-MEL-2 melanoma
OVCAR-8 ovarian = tested on: OVCAR-8 ovarian
HOP-92 NSCLC = tested on: HOP-92 NSCLC
SK-MEL-28 melanoma = tested on: SK-MEL-28 melanoma
BT-549 breast = tested on: BT-549 breast

Work on O=C1Nc2ccccc2C1(c1c[nH]c2ccccc12)c1c[nH]c2ccccc12 yielded a GI50 (U251 CNS) of 2.69 µM, a TGI (U251 CNS) of 7.49 µM and a GI50 (HOP-62 NSCLC) of 1.93 µM. The TGI (HOP-62 NSCLC) was 4.95 µM, the GI50 (COLO 205 colon) was 1.93 µM and the TGI (COLO 205 colon) was 3.86 µM. It also gave a GI50 (UACC-62 melanoma) of 1.96 µM, a TGI (UACC-62 melanoma) of 5.09 µM and a GI50 (SR leukemia) of 4 µM. It also gave a TGI (SR leukemia) greater than 100 µM, a GI50 (ACHN renal) of 1.82 µM and a TGI (ACHN renal) of 3.58 µM. The GI50 (OVCAR-4 ovarian) was 2.48 µM, the TGI (OVCAR-4 ovarian) was 7.45 µM and the GI50 (TK-10 renal) was 2.31 µM. It also gave a TGI (TK-10 renal) of 5.41 µM, a GI50 (CAKI-1 renal) of 1.85 µM and a TGI (CAKI-1 renal) of 4.37 µM. For the same compound, the GI50 (NCI-H23 lung) was 2.08 µM, the TGI (NCI-H23 lung) was 4.48 µM and the GI50 (MOLT-4 leukemia) was 3.77 µM. It also gave a TGI (MOLT-4 leukemia) of 28.9 µM, a GI50 (HCC-2998 colon) of 1.82 µM and a TGI (HCC-2998 colon) of 3.75 µM. It also gave a GI50 (NCI-H460 lung) of 2.84 µM, a TGI (NCI-H460 lung) of 8.21 µM and a GI50 (SK-OV-3 ovarian) of 2.72 µM. The TGI (SK-OV-3 ovarian) was 7.74 µM, the GI50 (SN12C renal) was 1.89 µM and the TGI (SN12C renal) was 4.29 µM. It also gave a GI50 (HCT-116 colon) of 2.48 µM, a TGI (HCT-116 colon) of 6.29 µM and a GI50 (NCI/ADR-RES ovarian) of 2.15 µM. It also gave a TGI (NCI/ADR-RES ovarian) of 5.03 µM, a GI50 (SF-295 CNS) of 2.02 µM and a TGI (SF-295 CNS) of 4.7 µM. The GI50 (A549 NSCLC) was 2.18 µM, the TGI (A549 NSCLC) was 5.31 µM and the GI50 (PC-3 prostate) was 2.05 µM. It also gave a TGI (PC-3 prostate) of 5.75 µM, a GI50 (DU-145 prostate) of 2.09 µM and a TGI (DU-145 prostate) of 4.2 µM. The GI50 (SF-268 CNS) was 2.8 µM, the TGI (SF-268 CNS) was 13.9 µM and the GI50 (OVCAR-5 ovarian) was 2.52 µM. For the same compound, the TGI (OVCAR-5 ovarian) was 7.6 µM, the GI50 (HT29 colon) was 3.23 µM and the TGI (HT29 colon) was 11.4 µM. For the same compound, the GI50 (SF-539 CNS) was 2.07 µM, the TGI (SF-539 CNS) was 4.31 µM and the GI50 (OVCAR-3 ovarian) was 2.14 µM. For the same compound, the TGI (OVCAR-3 ovarian) was 4.84 µM, the GI50 (SK-MEL-5 melanoma) was 2.18 µM and the TGI (SK-MEL-5 melanoma) was 4.81 µM. The GI50 (UO-31 renal) was 1.18 µM, the TGI (UO-31 renal) was 3.04 µM and the GI50 (786-0 renal) was 2.01 µM. The TGI (786-0 renal) was 4.11 µM, the GI50 (MCF7 breast) was 2.06 µM and the TGI (MCF7 breast) was 4.74 µM. For the same compound, the GI50 (NCI-H522 lung) was 2.01 µM, the TGI (NCI-H522 lung) was 4.71 µM and the GI50 (SW-620 colon) was 3.22 µM. The TGI (SW-620 colon) was 13.1 µM, the GI50 (MDA-MB-435) was 3.34 µM and the TGI (MDA-MB-435) was 11.7 µM. It also gave a GI50 (UACC-257 melanoma) of 3.67 µM, a TGI (UACC-257 melanoma) of 16.6 µM and a GI50 (MALME-3M melanoma) of 2.47 µM. For the same compound, the TGI (MALME-3M melanoma) was 6.93 µM, the GI50 (RXF 393 renal) was 1.94 µM and the TGI (RXF 393 renal) was 3.76 µM. For the same compound, the GI50 (LOX IMVI melanoma) was 1.7 µM, the TGI (LOX IMVI melanoma) was 3.32 µM and the GI50 (KM12 colon) was 2.3 µM. For the same compound, the TGI (KM12 colon) was 5.96 µM, the GI50 (IGROV1 ovarian) was 2.04 µM and the TGI (IGROV1 ovarian) was 5.09 µM. For the same compound, the GI50 (HL-60(TB) leukemia) was 3.72 µM, the TGI (HL-60(TB) leukemia) was 37.6 µM and the GI50 (MDA-MB-231 breast) was 2.3 µM. For the same compound, the TGI (MDA-MB-231 breast) was 5.96 µM, the GI50 (A498 renal) was 1.81 µM and the TGI (A498 renal) was 3.63 µM. It also gave a GI50 (CCRF-CEM leukemia) of 4.43 µM, a TGI (CCRF-CEM leukemia) of 45.8 µM and a GI50 (M14 melanoma) of 2.39 µM. The TGI (M14 melanoma) was 7.17 µM, the GI50 (EKVX NSCLC) was 1.7 µM and the TGI (EKVX NSCLC) was 3.84 µM. It also gave a GI50 (T-47D breast) of 1.99 µM, a TGI (T-47D breast) of 4.69 µM and a GI50 (RPMI-8226 leukemia) of 4.25 µM. For the same compound, the TGI (RPMI-8226 leukemia) was 38.5 µM, the GI50 (HCT-15 colon) was 2.57 µM and the TGI (HCT-15 colon) was 7.69 µM. For the same compound, the GI50 (SNB-19 CNS) was 2.73 µM, the TGI (SNB-19 CNS) was 8.35 µM and the GI50 (HS 578T breast) was 2.05 µM. For the same compound, the TGI (HS 578T breast) was 5.16 µM, the GI50 (K-562 leukemia) was 3.94 µM and the TGI (K-562 leukemia) was greater than 100 µM. It also gave a GI50 (SK-MEL-2 melanoma) of 2.08 µM, a TGI (SK-MEL-2 melanoma) of 4.51 µM and a GI50 (OVCAR-8 ovarian) of 2.15 µM. For the same compound, the TGI (OVCAR-8 ovarian) was 5.18 µM, the GI50 (HOP-92 NSCLC) was 1.87 µM and the TGI (HOP-92 NSCLC) was 4.95 µM. For the same compound, the GI50 (SK-MEL-28 melanoma) was 5.7 µM, the TGI (SK-MEL-28 melanoma) was 20 µM and the GI50 (BT-549 breast) was 2.06 µM. The TGI (BT-549 breast) was 4.68 µM.
